EC50 and IC50 data for 20 compounds are collected here from patent US11866430B2, “Naphthyridinone compounds useful as T cell activators” (priority 2018, dated 2024).

The subject of one assay is Human venous whole blood. Kind of assay: Human Whole Blood IFN-γ Assay. Particulars: human whole blood, anti-CD3 plus anti-CD28 as baseline, 3 μM Example 40 co-stimulation as 100% activation, read-out: INF-γ Whole Blood Normalized Agonist EC50. The assay is classed as cell-based. The procedure:
Human venous whole blood (22.5 μL per well), obtained from healthy donors, was pre-treated with compounds for one hour at 37° C. in a humidified 95% air/5% CO2 incubator. The blood was stimulated with 2.5 μL anti-human CD3 and anti-CD28 mAb at a final concentration of 1 μg/mL each for 24 hours at 37° C. IFN-γ in the supernatants was measured using AlphaLISA kit (Cat #AL217).

The target of the next assay is human DGKα (Homo sapiens (Human), UniProt P23743). Kind of assay: biochemical. The settings on record: detergent/lipid micelle substrate; read-out: DGKα IC50. The gist of the method: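 Full-length human DGKζ (and DGKα), C-terminal His-tagged, Sf9-expressed, with phosphatidylserine/DAG micelles in 50 mM octyl glucoside; buffer 50 mM MOPS pH 7.5, 100 mM NaCl, 10 mM MgCl2, 1 μM CaCl2, 1 mM DTT.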

Assay [1] deals with naïve human CD8 T cells. In words: cells. The settings on record: Homo sapiens, T-cell, read-out: HuCD8 INFG Normalized EC50, anti-CD3 plus anti-CD28 as baseline; 3 μM Example 40 co-stimulation as 100% activation. The gist of the method:
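Thawed frozen cells, 40,000/well, stimulated on plate-bound anti-CD3 (coated at 0.05 μg/mL) plus soluble anti-CD28 0.1 μg/mL; compounds added immediately after plating. After 20 h at 37° C., supernatant IFN-γ quantitated by AlphaLISA, counts converted to IFN-γ concentration […].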

In assay [2] the test system is naïve human CD8 T cells. In words: CellTiter-Glo CD8 T Cell Proliferation Assay. In kind it is cell-based. The settings on record: CellTiter-Glo CD8 T cell proliferation, normalized, read-out: CD8 GLO normalized EC50. As for the experimental part:
Frozen naïve human CD8 T cells were thawed in RPMI+10% FBS, incubated for 2 h in 37° C., and counted. The 384-well tissue culture plate was coated overnight at 4° C. with 20 μl anti-human CD3 at 0.1 μg/mL in plain RPMI, which was removed off the plate before 20 k/40 μl CD8 T cells with 0.5 μg/mL soluble anti-human CD28 were added to each well. The compounds were echoed to the cell plate immediately after the cells were plated. After 72 h incubation at 37° C. incubator, 10 μl CellTiter-glo reagent (Promega catalog number G7570) was added to each well. The plate was vigorously shaken for 5 mins, incubated at room temperature for another 15 mins and read on Envision for CD8 T cell proliferation. In analysis, 0.1 μg/mL anti-CD3 and 0.5 μg/mL anti-CD28 stimulated CD8 T cell signal was background.
Background: ATP-based viability assays read luminescence as a measure of living cells.

Assay [3] deals with pre-activated CD4 T cells and Raji cells. Kind of assay: Raji CD4 T Cell IL2 Assay. In kind it is cell-based. The settings on record: Homo sapiens, Raji.

pEC50, pIC50: −log10 of the molar value. Read-outs that look alike come from different tables or passages of the source.

Sequence of human DGKα (P23743 other isoform, or with tags, fused parts or gaps): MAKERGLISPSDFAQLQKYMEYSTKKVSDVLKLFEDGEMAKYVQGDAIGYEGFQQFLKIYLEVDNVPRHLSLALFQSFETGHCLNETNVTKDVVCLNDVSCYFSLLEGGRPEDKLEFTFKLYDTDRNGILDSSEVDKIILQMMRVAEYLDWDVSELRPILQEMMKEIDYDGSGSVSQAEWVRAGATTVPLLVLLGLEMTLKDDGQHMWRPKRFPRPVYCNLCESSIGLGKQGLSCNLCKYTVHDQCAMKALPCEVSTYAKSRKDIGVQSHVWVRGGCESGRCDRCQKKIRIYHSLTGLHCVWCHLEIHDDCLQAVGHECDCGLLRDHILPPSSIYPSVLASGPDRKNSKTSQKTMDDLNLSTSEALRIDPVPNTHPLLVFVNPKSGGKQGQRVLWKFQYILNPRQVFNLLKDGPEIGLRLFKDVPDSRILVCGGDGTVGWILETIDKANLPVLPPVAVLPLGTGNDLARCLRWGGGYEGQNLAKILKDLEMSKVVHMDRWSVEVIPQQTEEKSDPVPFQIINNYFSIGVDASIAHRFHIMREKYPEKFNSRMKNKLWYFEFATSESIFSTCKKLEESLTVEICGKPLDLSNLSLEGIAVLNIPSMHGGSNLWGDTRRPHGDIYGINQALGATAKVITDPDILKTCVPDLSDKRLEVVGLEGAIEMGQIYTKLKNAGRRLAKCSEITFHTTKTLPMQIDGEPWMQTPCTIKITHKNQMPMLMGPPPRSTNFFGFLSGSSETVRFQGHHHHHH

For the compound `C#CCn1c(=O)c([N+](=O)[O-])c(N2CCN(C(c3ccc(F)cc3)c3ccc(F)cc3O)CC2)c2nc(C#N)ccc21` (single isomer, unassigned) [Example 121, 8-(4-((4-fluoro-2-hydroxyphenyl)(4-fluorophenyl)methyl)piperazin-1-yl)-7-nitro-6-oxo-5-(prop-2-yn-1-yl)-5,6-dihydro-1,5-naphthyridine-2-carbonitrile], the pEC50 in the assay on Human venous whole blood (Homo sapiens) is 6.26. Further, the pIC50 at human DGKα is 5.72.

`C#CCn1c(=O)c([N+](=O)[O-])c(N2CCN(C(C)c3ccc(F)cc3)CC2)c2nc(C#N)ccc21` (single isomer, unassigned) [Example 136, 8-(4-(1-(4-fluorophenyl)ethyl)piperazin-1-yl)-7-nitro-6-oxo-5-(prop-2-yn-1-yl)-5,6-dihydro-1,5-naphthyridine-2-carbonitrile]: in the assay with Human venous whole blood, the pEC50 was 5.94. In addition, at human DGKα, the pIC50 is 6.68.

`C#CCn1c(=O)c([N+](=O)[O-])c(N2CCN(C(CC)c3ccc(F)cc3)CC2)c2nc(C#N)ccc21` (single isomer, unassigned) [Example 141, 8-{4-[1-(4-fluorophenyl)propyl]piperazin-1-yl}-7-nitro-6-oxo-5-(prop-2-yn-1-yl)-5,6-dihydro-1,5-naphthyridine-2-carbonitrile]: on human DGKα, the pIC50 is 6.57. Besides, the pEC50 with naïve human CD8 T cells [1] is 7.52; in the assay with naïve human CD8 T cells [2] (Homo sapiens, T-cell), 8.00.

In the case of `C#CCn1c(=O)c([N+](=O)[O-])c(N2CCN(C(c3ccc(F)cc3)C3CC3)CC2)c2nc(C#N)ccc21` (single isomer, unassigned) [Example 143, 8-(4-(cyclopropyl(4-fluorophenyl)methyl)piperazin-1-yl)-7-nitro-6-oxo-5-(prop-2-yn-1-yl)-5,6-dihydro-1,5-naphthyridine-2-carbonitrile], at human DGKα, the pIC50 was 5.89. Also, the pEC50 is 7.05 with naïve human CD8 T cells [1] and 8.00 in the assay with naïve human CD8 T cells [2] (Homo sapiens, T-cell).

Take `CC(C)C(c1ccc(F)cc1)N1CCN(c2c(C#N)c(=O)n(C)c3ccc(Cl)nc23)CC1` (single isomer, unassigned) [Example 315, 6-chloro-4-{4-[1-(4-fluorophenyl)-2-methylpropyl]piperazin-1-yl}-methyl-2-oxo-1,2-dihydro-1,5-naphthyridine-3-carbonitrile]: the pIC50 in assay [3] is 6.60. For the same compound, the pEC50 in the assay on naïve human CD8 T cells [2] (Homo sapiens, T-cell) was 5.90.

Take `Cn1c(=O)c(C#N)c(N2CCN(C(CC(C)(C)C)c3ccc(F)cc3)CC2)c2nc(Cl)ccc21` (single isomer, unassigned) [Example 377, 6-chloro-4-{4-[1-(4-fluorophenyl)-3,3-dimethylbutyl]piperazin-1-yl}-1-methyl-2-oxo-1,2-dihydro-1,5-naphthyridine-3-carbonitrile]: the negative-log EC50 (pEC50) in the assay with naïve human CD8 T cells [2] was 5.00.

On to `Cn1c(=O)c(C#N)c(N2CCN(C(CC(C)(C)C)c3ccc(F)cc3)CC2)c2nc(Cl)ccc21` (single isomer, unassigned) [Example 378, 6-chloro-4-{4-[1-(4-fluorophenyl)-3,3-dimethylbutyl]piperazin-1-yl}-1-methyl-2-oxo-1,2-dihydro-1,5-naphthyridine-3-carbonitrile], for which the pEC50 in the assay on naïve human CD8 T cells [2] is 5.76.

In the case of `Cn1c(=O)c(C#N)c(N2CCN(C(c3ccc(F)cc3)C3CCC3)CC2)c2nc(Cl)ccc21` (single isomer, unassigned) [Example 382, 6-chloro-4-{4-[cyclobutyl(4-fluorophenyl)methyl]piperazin-1-yl}-1-methyl-2-oxo-1,2-dihydro-1,5-naphthyridine-3-carbonitrile], the pEC50 in the assay on naïve human CD8 T cells [2] is 5.75.

Regarding `Cn1c(=O)c(C#N)c(N2CCN(C(c3ccc(F)cc3)C3CCC3)CC2)c2nc(Cl)ccc21` (single isomer, unassigned) [Example 383, 6-chloro-4-{4-[cyclobutyl(4-fluorophenyl)methyl]piperazin-1-yl}-1-methyl-2-oxo-1,2-dihydro-1,5-naphthyridine-3-carbonitrile], the pEC50 with naïve human CD8 T cells [2] is 7.22.

On to `CC(c1ccc(F)cc1)N1CCN(c2c(C#N)c(=O)n(C)c3ccc(Cl)nc23)CC1` (single isomer, unassigned) [Example 387, 6-chloro-4-{4-[1-(4-fluorophenyl)ethyl]piperazin-1-yl}-1-methyl-2-oxo-1,2-dihydro-1,5-naphthyridine-3-carbonitrile], for which, in the assay on naïve human CD8 T cells [2], the pEC50 is 6.74.

With `CC(c1ccc(F)cc1)N1CCN(c2c(C#N)c(=O)n(C)c3ccc(Cl)nc23)CC1` (single isomer, unassigned) [Example 388, 6-chloro-4-{4-[1-(4-fluorophenyl)ethyl]piperazin-1-yl}-1-methyl-2-oxo-1,2-dihydro-1,5-naphthyridine-3-carbonitrile], the pIC50 on human DGKα was 7.28. Further, the pEC50 with naïve human CD8 T cells [2] was 6.32.

Take `Cn1c(=O)c(C#N)c(N2CCN(C(c3ccc(F)cc3)c3ccccc3O)CC2)c2nc(C#N)ccc21` (stereo not drawn) [Example 11, 8-{4-[(4-fluorophenyl)(2-hydroxyphenyl)methyl]piperazin-1-yl}-5-methyl-6-oxo-5,6-dihydro-1,5-naphthyridine-2,7-dicarbonitrile]: the pIC50 at human DGKα is 6.35.

On to `Cn1c(=O)c([N+](=O)[O-])c(N2CCN(CC(O)c3ccc(F)cc3)CC2)c2nc(C#N)ccc21` (stereo not drawn) [Example 36, 8-{4-[2-(4-fluorophenyl)-2-hydroxyethyl]piperazin-1-yl}-5-methyl-7-nitro-6-oxo-5,6-dihydro-1,5-naphthyridine-2-carbonitrile], for which the pIC50 at human DGKα is 5.85.

Take `CCCCn1c(=O)c([N+](=O)[O-])c(N2CCN(C(c3ccccc3)c3ccccc3)CC2)c2ncccc21` [Example 177, 4-(4-benzhydrylpiperazin-1-yl)-1-butyl-3-nitro-1,5-naphthyridin-2(1H)-one]: the pEC50 in the assay with naïve human CD8 T cells [2] (Homo sapiens, T-cell) is 5.00.

With `Cc1ccc2c(n1)c(N1CCN(C(C)c3ccc(F)cc3)CC1)c(Br)c(=O)n2C` (stereo not drawn) [Example 224, 3-bromo-4-(4-(1-(4-fluorophenyl)ethyl)piperazin-1-yl)-1,6-dimethyl-1,5-naphthyridin-2(1H)-one], on human DGKα, the pIC50 was 6.27. Further, the pEC50 in the assay on naïve human CD8 T cells [2] (Homo sapiens, T-cell) is 5.37.

In the case of `Cc1ccc(CN2CCN(c3c(C#N)c(=O)n(C)c4ccc(Br)nc34)CC2)c(O)c1` [Example 372, 6-bromo-4-{4-[(2-hydroxy-4-methylphenyl)methyl]piperazin-1-yl}-1-methyl-2-oxo-1,2-dihydro-1,5-naphthyridine-3-carbonitrile], the pEC50 in the assay with Human venous whole blood (Homo sapiens) was 5.30. Moreover, the pIC50 on human DGKα is 7.48; in assay [3] it was under 4.00.

On to `Cc1ccc2c(n1)c(N1CCN(Cc3cccc(Cl)c3O)CC1)c(C#N)c(=O)n2C` [Example 389, 4-{4-[(3-chloro-2-hydroxyphenyl)methyl]piperazin-1-yl}-1,6-dimethyl-2-oxo-1,2-dihydro-1,5-naphthyridine-3-carbonitrile], for which, at human DGKα, the pIC50 was 6.07.

On to `Cc1cccc(CN2CCN(c3c(C#N)c(=O)n(C)c4ccc(Cl)nc34)CC2)c1O` [Example 391, 6-chloro-4-{4-[(2-hydroxy-3-methylphenyl)methyl]piperazin-1-yl}-1-methyl-2-oxo-1,2-dihydro-1,5-naphthyridine-3-carbonitrile], for which the pEC50 with Human venous whole blood (Homo sapiens) was 5.46. The pIC50 on human DGKα is 6.59.

For the compound `Cn1c(=O)c([N+](=O)[O-])c(N2CCN(Cc3cccc4ccccc34)CC2)c2nc(C#N)ccc21` [Example 415, 5-methyl-8-{4-[(naphthalen-1-yl)methyl]piperazin-1-yl}-7-nitro-6-oxo-5,6-dihydro-1,5-naphthyridine-2-carbonitrile], the pEC50 in the assay on naïve human CD8 T cells [2] (Homo sapiens, T-cell) is 7.70.

Consider `COc1cc(C#N)ccc1CN1CCN(c2c(C#N)c(=O)n(C)c3ccc(Cl)nc23)CC1` [Example 424, 6-chloro-4-{4-[(4-cyano-2-methoxyphenyl)methyl]piperazin-1-yl}-1-methyl-2-oxo-1,2-dihydro-1,5-naphthyridine-3-carbonitrile], for which the pIC50 is 6.11 at human DGKα and under 4.00 in assay [3].

As a reminder, the pEC50 is the negative decadic logarithm of the EC50, by convention in mol/L. Broadly, the pIC50 is −log10 of the IC50, conventionally taken in molar units.
